This note sets out measurements from patent publication EP0514133A1, “Benzodiazepine derivatives, compositions containing them and their use in therapy” (priority 1991, dated 1992).

The target of experiment [1] is T1, CCK receptor (pancreas) (Rattus norvegicus, UniProt P30551).
T1 construct: The whole pancreas was dissected free of fat tissue and was homogenized; from tissue; host or cells: rat pancreas membrane homogenate
T1 sequence (P30551 1-444): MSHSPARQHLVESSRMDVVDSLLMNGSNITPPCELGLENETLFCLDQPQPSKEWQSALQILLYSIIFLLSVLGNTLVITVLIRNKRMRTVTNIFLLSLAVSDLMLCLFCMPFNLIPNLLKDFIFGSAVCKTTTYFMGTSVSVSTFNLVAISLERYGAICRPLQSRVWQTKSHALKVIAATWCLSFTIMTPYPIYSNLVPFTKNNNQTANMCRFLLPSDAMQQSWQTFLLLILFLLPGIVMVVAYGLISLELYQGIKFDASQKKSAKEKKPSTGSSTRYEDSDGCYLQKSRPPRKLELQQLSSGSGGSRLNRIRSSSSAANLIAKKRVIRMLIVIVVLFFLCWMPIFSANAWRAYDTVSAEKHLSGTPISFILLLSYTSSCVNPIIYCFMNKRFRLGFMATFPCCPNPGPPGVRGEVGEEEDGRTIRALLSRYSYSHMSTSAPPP
The experiment is described as follows: biochemical. The format is binding. The conditions noted are these: rat pancreas membranes, 50 pM 125I-CCK-8, 25°C 2 hours. As for the experimental part:
CCK-8 sulphated was radiolabelled with ¹²⁵I-Bolton Hunter reagent (2000 Ci/mmole). Receptor binding was performed according to Chang and Lotti (Proc. Natl. Acad. Sci. 83, 4923-4926, 1986) with minor modifications.
Male Sprague-Dawley rats (150-200g) were sacrificed by decapitation. The whole pancreas was dissected free of fat tissue and was homogenized in 25 volumes of ice-cold 10 mM N-2-hydroxyethyl-piperazine-N′-2-ethane sulphonic acid (HEPES) buffer with 0.1% soya bean trypsin inhibitor (pH 7.4 at 25°C) with a Kinematica Polytron. The homogenates were centrifuged at 47,800 g for 10 min. Pellets were resuspended in 10 volumes of binding assay buffer (20mM (HEPES)), 1mM ethylene glycol-bis-(β-aminoethylether-N,N′-tetraacetic acid) (EGTA), 5mM MgCl₂, 150 mM NaCl, bacitracin 0.25 mg/ml, soya bean trypsin inhibitor 0.1 mg/ml, and bovine serum albumin 2 mg/ml pH 6.5 at 25°C) using a Teflon (trademark) homogenizer, 15 strokes at 500 rpm. The homogenate was further diluted in binding assay buffer to give a final concentration of 0.5 mg original wet weight/1 ml buffer. […] All assays were run in duplicate. The reaction mixtures were incubated at 25°C for 2 hours and the reaction terminated by rapid filtration (Brandell 24 well cell harvester) over Whatman GF/C filters, washing 3 x 4 mls with ice-cold 100 Mm NaCl. The radioactivity on the filters was counted with a LKB gamma counter.
(§1) Drug displacement studies were performed with at least 10 concentrations of compounds of Formula I and the IC₅₀ values were determined by regression analysis IC₅₀ refers to the concentration of the compound required to inhibit 50% of specific binding of ¹²⁵I-CCK-8.

Experiment [2] addresses T2, Gastrin Receptor (Cavia porcellus, UniProt H0VZC5).
T2 sequence (H0VZC5 1-426): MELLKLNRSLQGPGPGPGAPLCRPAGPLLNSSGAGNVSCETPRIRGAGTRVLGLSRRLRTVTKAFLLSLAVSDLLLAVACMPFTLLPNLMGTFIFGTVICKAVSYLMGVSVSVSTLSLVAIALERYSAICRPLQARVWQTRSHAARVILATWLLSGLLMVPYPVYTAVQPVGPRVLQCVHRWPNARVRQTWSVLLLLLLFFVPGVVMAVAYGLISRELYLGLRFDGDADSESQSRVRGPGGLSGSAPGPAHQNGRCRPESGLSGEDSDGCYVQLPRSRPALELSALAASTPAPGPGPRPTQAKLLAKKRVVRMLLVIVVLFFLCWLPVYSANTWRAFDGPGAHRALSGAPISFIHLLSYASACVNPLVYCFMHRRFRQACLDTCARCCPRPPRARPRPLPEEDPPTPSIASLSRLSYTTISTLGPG
The experiment is described as follows: Gastrin Receptor Binding in Guinea Pig Gastric Glands, 125I-gastrin. On the set-up: from tissue; host or cells: isolated guinea pig gastric mucosal glands. The note with it: 0.1 nM 125I-gastrin, 25°C 30 minutes. Here is the method: Gastrin antagonist activity of compounds of Formula I was determined using the following assay.
Guinea pig gastric mucosal glands were prepared by the procedure of Chang et. al., Science, 230, 177-179 (1985) with slight modifications. […] The tissues were passed twice through a 5 ml syringe to liberate the gastric glands, and then filtered through Nitex (trademark) #202 gauge nylon mesh. The filtered glands were centrifuged at 272 g for 5 minutes and washed twice by resuspension in 25 ml buffer and centrifugation.
The washed guinea pig gastric glands prepared as above were resuspended in 25 ml of standard buffer. For binding studies, to 250 µl of gastric glands, 30 µl of buffer (for total binding) or gastrin (3 µM final concentration, for nonspecific binding) or test compound and 20 µl of ¹²⁵I-gastrin (NEN, 2200 Ci/mmole, 0.1 nM final concentration) were added. All assays were run in triplicate. […] The reaction mixtures, after incubation at 25°C for 30 minutes in a shaking water bath were rapidly filtered (Brandell 24 well cell harvester) over Whatman G/F B filters presoaked in assay buffer and immediately washed further with 3 x 4 ml of 100 mM ice cold NaCl. The radioactivity on the filters was measured using a LKB gamma counter.

For experiment [3], the target named is T3, CCK receptor (brain, cortex) (Cavia porcellus, UniProt H0VZC5).
T3 construct: the cortex was removed and homogenized in 25 mL ice-cold 0.32 M sucrose; from tissue; host or cells: guinea pig brain cortex P2 membrane pellet
T3 sequence (H0VZC5 1-426): T2 sequence (H0VZC5 1-426)
Nature of the experiment: biochemical. It is filed as binding, guinea pig. The note with it: guinea pig cortex membranes, 50 pM 125I-CCK-8, 25°C 2 hours; read-out: IC50 ^125I-CCK Brain. Here is the method: CCK-8 sulphated was radiolabelled and the binding was performed according to the description for the pancreas method with minor modifications.
Male Hartley guinea pigs (300-500g) were sacrificed by decapitation and the cortex was removed and homogenized in 25 mL ice-cold 0.32 M sucrose. The homogenates were centrifuged at 1000 g for 10 minutes and the resulting supernatant was recentrifuged at 20,000 g for 20 minutes. The P₂ pellet was resuspended in binding assay buffer (20mM HEPES, 5 mM MgCl₂, 0.25 mg/ml bacitracin, 1 mM EGTA pH 6.5 at 25°C), using a Teflon (trademark) homogenizer (5 strokes at 500 rpm) to give a final concentration of 10 mg original wet weight/1.2 ml buffer. […] All assays were run in duplicate. The reaction mixtures were incubated at 25°C for 2 hours and then the reaction was terminated by rapid filtration (Brandell 24 well cell harvester) on Whatman GF/C filters with 3 x 5 ml washes of cold 100 mM NaCl. The radioactivity on the filters was counted with a LKB gamma counter.
as §1

As to `CC(C)S(=O)(=O)NC(=O)c1cccc(NC(=O)NC2N=C(C3CCCCC3)c3ccccc3N(C)C2=O)c1` (racemic) [Example 12, N-[3(R,S)-5-Cyclohexyl-2,3-dihydro-1-methyl-2-oxo-1H-1,4-benzodiazepin-3-yl] N′-[3-(isopropylsulphonylaminocarbonyl)phenyl] urea], the IC50 worked out at 12.4 nM in experiment [1] and 3.24 nM in experiment [2].
Consider `CCCN1C(=O)C(NC(=O)Nc2cccc(C(=O)NS(C)(=O)=O)c2)N=C(C2CCCCC2)c2ccccc21` (racemic) [Example 25, N-[3(R,S)-5-Cyclohexyl-2,3-dihydro-1-propyl-2-oxo-1H-1,4-benzodiazepin-3-yl] N′-(3-(methylsulphonylaminocarbonyl)phenyl]urea], for which the IC50 is 220 nM in experiment [1] and 1.9 nM in experiment [3].
For the molecule `CN1C(=O)C(NC(=O)Nc2cccc(S(=O)(=O)Nc3nccs3)c2)N=C(C2CCCCC2)c2ccccc21` (racemic) [Example 26, N-[3(R,S)-5-Cyclohexyl-2,3-dihydro-1-methyl-2-oxo-1H-1,4-benzodiazepin-3-yl] N′-[3-(thiazol-2-ylaminosulphonyl)phenyl]urea], the results for the IC50 in experiment [1] and in experiment [3] were 60 nM and 2.3 nM, respectively.
On the same counts, the results for `CN1C(=O)C(NC(=O)Nc2cccc(-c3nnn(C)n3)c2)N=C(C2CCCCC2)c2ccccc21` (racemic) [Example 28, N-[3(R,S)-5-Cyclohexyl-2,3-dihydro-1-methyl-2-oxo-1H-1,4-benzodiazepin-3-yl] N′-[3-(2-methyltetrazol-5-yl)phenyl]urea] are 8.3 nM and 4 nM.
The matching figures for `CCN1C(=O)C(NC(=O)Nc2cccc(C(=O)NS(C)(=O)=O)c2)N=C(C2CCCC2)c2ccccc21` (racemic) [Example 29, N-(3(R,S)-5-Cyclopentyl-2,3-dihydro-1-ethyl-2-oxo-1H-1,4-benzodiazepin-3-yl] N′-(3-(methylsulphonylaminocarbonyl)phenyl] urea]: 22 nM and 6.3 nM.
For the molecule `CCN1C(=O)C(NC(=O)Nc2cccc(C(=O)NS(=O)(=O)C(C)C)c2)N=C(C2CCCC2)c2ccccc21` (racemic) [Example 30, N-[3(R,S)-5-Cyclopentyl-2,3-dihydro-1-ethyl-2-oxo-1H-1,4-benzodiazepin-3-yl] N′-[3-(isopropylsulphonylaminocarbonyl)phenyl] urea], the values for the IC50 in experiment [1] and in experiment [3] were 170 nM and 3.2 nM, respectively.
On the same counts, the results for `CN1C(=O)C(NC(=O)Nc2cccc(S(=O)(=O)NC(=O)C(C)(C)C)c2)N=C(C2CCCCC2)c2ccccc21` (racemic) [Example 32, N-(3(R,S)-5-Cyclohexyl-2,3-dihydro-1-methyl-2-oxo-1H-1,4-benzodiazepin-3-yl] N′-(3-(1,1-dimethylethylcarbonylaminosulphonyl)phenyl] urea] are 610 nM and 1.3 nM.
The matching figures for `CCCN1C(=O)C(NC(=O)Nc2cccc(C(=O)NS(=O)(=O)C(C)C)c2)N=C(C2CCCC2)c2ccccc21` (racemic) [Example 36, N-[3(R,S)-5-Cyclopentyl-2,3-dihydro-1-propyl-2-oxo-1H-1,4-benzodiazepin-3-yl] N′-[3-(isopropylsulphonylaminocarbonyl)phenyl] urea]: 1300 nM and 1.2 nM.
As to `CCCN1C(=O)C(NC(=O)Nc2cccc(C(=O)NS(=O)(=O)C(C)(C)C)c2)N=C(C2CCCC2)c2ccccc21` (racemic) [Example 37, N-[3(R,S)-5-Cyclopentyl-2,3-dihydro-1-propyl-2-oxo-1H-1,4-benzodiazepin-3-yl] N′-[3-(1,1-dimethylethylsulphonylaminocarbonyl)phenyl] urea], the figures for the IC50 in experiment [1] and in experiment [3] were 960 nM and 0.19 nM, respectively.
For `CC(C)S(=O)(=O)NC(=O)c1cccc(NC(=O)NC2N=C(C3CCCC3)c3ccccc3N(C)C2=O)c1` (racemic) [Example 38, N-(3(R,S)-5-Cyclopentyl-2,3-dihydro-1-methyl-2-oxo-1H-1,4-benzodiazepin-3-yl] N′-[3-(isopropylsulphonylaminocarbonyl)phenyl] urea], the IC50 was found to be 300 nM in experiment [1] and 6.8 nM in experiment [3].
For `CN1C(=O)C(NC(=O)Nc2cccc(-c3cc(=O)c(O)co3)c2)N=C(C2CCCCC2)c2ccccc21` (racemic) [Example 43, N-[3(R,S)-5-Cyclohexyl-2,3-dihydro-1-methyl-2-oxo-1H-1,4-benzodiazepin-3-yl] N′-[3-(5-hydroxy-4-pyron-2-yl)phenyl] urea], the IC50 in experiment [1] is 17.8 nM; in experiment [3], 2.1 nM.
On the same counts, the results for `CN1C(=O)C(NC(=O)Nc2ccc3c(c2)C(=O)NS(=O)(=O)C3)N=C(C2CCCCC2)c2ccccc21` (racemic) [Example 44, N-[3(R,S)-5-Cyclohexyl-2,3-dihydro-1-methyl-2-oxo-1H-1,4-benzodiazepin-3-yl] N′-(3,4-dihydro-2,2-dioxo-4-oxo-1H-2,3-benzothiazin-6-yl] urea] are 100 nM and 3.4 nM.
As for `Cc1ccc(NC(=O)N[C@@H]2N=C(C3CCCCC3)c3ccccc3N(C)C2=O)cc1C(=O)NS(C)(=O)=O` [Example 34, N-[3(R)-5-Cyclohexyl-2,3-dihydro-1-methyl-2-oxo-1H-1,4-benzodiazepin-3-yl] N′-[4-methyl-3-(methylsulphonylaminocarbonyl)phenyl] urea], the IC50 in experiment [1] is 1700 nM; in experiment [3], 2.3 nM.
As for `CN1C(=O)[C@@H](NC(=O)Nc2cccc(C(=O)NS(=O)(=O)c3ccccc3)c2)N=C(C2CCCCC2)c2ccccc21` [Example 35, N-[3(S)-5-Cyclohexyl-2,3-dihydro-1-methyl-2-oxo-1H-1,4-benzodiazepin-3-yl] N′-[3-(phenylsulphonylaminocarbonyl)phenyl] urea], the IC50 in experiment [1] was 10.2 nM; in experiment [3], 50.8 nM.

Usually IC50 stands for the concentration needed to halve the response being measured.
